Assay results: PubChem BioAssay (NCI)
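Cells were grown in 96-well plates and exposed to each compound for 48 hours at five concentrations; endpoints were interpolated linearly between bracketing concentrations, or set to the highest concentration if not reached. TGI: total growth inhibition.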

Experiments:
Test in all cases: NCI tumour cell line growth inhibition, 48 h
[1] = test system: A549 NSCLC
[2] = test system: HT29 colon
[3] = test system: ACHN renal
[4] = test system: DLD-1 colon
[5] = test system: NCI-H226 lung
[6] = test system: SF-268 CNS
[7] = test system: OVCAR-3 ovarian
[8] = test system: SNB-75 CNS
[9] = test system: NCI-H522 lung
[10] = test system: SNB-78 CNS
[11] = test system: HOP-92 NSCLC
[12] = test system: LOX IMVI melanoma
[13] = test system: SW-620 colon
[14] = test system: M14 melanoma
[15] = test system: SF-295 CNS
[16] = test system: NCI-H23 lung
[17] = test system: CCRF-CEM leukemia
[18] = test system: LXFL 529 NSCLC
[19] = test system: COLO 205 colon
[20] = test system: EKVX NSCLC
[21] = test system: RPMI-8226 leukemia
[22] = test system: DMS 273 small cell lung
[23] = test system: HOP-62 NSCLC
[24] = test system: UACC-62 melanoma
[25] = test system: SNB-19 CNS
[26] = test system: TK-10 renal
[27] = test system: KM20L2 colon
[28] = test system: HL-60(TB) leukemia
[29] = test system: K-562 leukemia
[30] = test system: SK-MEL-28 melanoma
[31] = test system: SR leukemia
[32] = test system: HCC-2998 colon
[33] = test system: XF 498 CNS
[34] = test system: SK-MEL-5 melanoma
[35] = test system: OVCAR-8 ovarian
[36] = test system: 786-0 renal
[37] = test system: KM12 colon
[38] = test system: UO-31 renal
[39] = test system: OVCAR-5 ovarian
[40] = test system: NCI-H460 lung
[41] = test system: OVCAR-4 ovarian
[42] = test system: HOP-18 NSCLC
[43] = test system: U251 CNS
[44] = test system: HCT-116 colon
[45] = test system: M19-MEL melanoma
[46] = test system: HCT-15 colon
[47] = test system: MALME-3M melanoma
[48] = test system: MOLT-4 leukemia
[49] = test system: SF-539 CNS
[50] = test system: SN12C renal
[51] = test system: UACC-257 melanoma
[52] = test system: DMS 114 small cell lung
[53] = test system: CAKI-1 renal

Structure (SMILES): COc1ccc2nc3ccccc3c(NCCCCCN(CCCl)CCCl)c2c1
- TGI [1]: 675 nM
- TGI [2]: 2840 nM
- TGI [3]: 748 nM
- TGI [4]: 793 nM
- TGI [5]: 801 nM
- TGI [6]: 329 nM
- TGI [7]: 963 nM
- TGI [8]: 911 nM
- TGI [9]: 17 nM
- TGI [10]: 2960 nM
- TGI [11]: 719 nM
- TGI [12]: 376 nM
- TGI [13]: 1190 nM
- TGI [14]: 184 nM
- TGI [15]: 1210 nM
- TGI [16]: 986 nM
- TGI [17]: 118 nM
- TGI [18]: 810 nM
- TGI [19]: 429 nM
- TGI [20]: 4100 nM
- TGI [21]: 206 nM
- TGI [22]: 343 nM
- TGI [23]: 525 nM
- TGI [24]: 1800 nM
- TGI [25]: 914 nM
- TGI [26]: 1380 nM
- TGI [27]: 1020 nM
- TGI [28]: 88.1 nM
- TGI [29]: 502 nM
- TGI [30]: 1190 nM
- TGI [31]: 10.1 nM
- TGI [32]: 230 nM
- TGI [33]: 71.7 nM
- TGI [34]: 433 nM
- TGI [35]: 2200 nM
- TGI [36]: 137 nM
- TGI [37]: 2140 nM
- TGI [38]: 418 nM
- TGI [39]: 1350 nM
- TGI [40]: 192 nM
- TGI [41]: 771 nM
- TGI [42]: > 27300 nM
- TGI [43]: 500 nM

Structure (SMILES): Nc1ccc2ncc(Nc3ccc(F)cc3)nc2c1
- TGI [1]: > 100000 nM
- TGI [2]: > 100000 nM
- TGI [3]: > 100000 nM
- TGI [4]: > 100000 nM
- TGI [5]: > 100000 nM
- TGI [6]: > 100000 nM
- TGI [7]: > 100000 nM
- TGI [8]: > 100000 nM
- TGI [9]: > 100000 nM
- TGI [10]: > 100000 nM
- TGI [44]: > 100000 nM
- TGI [45]: > 100000 nM
- TGI [12]: > 100000 nM
- TGI [13]: > 100000 nM
- TGI [46]: > 100000 nM
- TGI [14]: > 100000 nM
- TGI [15]: > 100000 nM
- TGI [16]: > 100000 nM
- TGI [17]: > 100000 nM
- TGI [47]: > 100000 nM
- TGI [19]: > 100000 nM
- TGI [48]: > 100000 nM
- TGI [20]: > 100000 nM
- TGI [49]: > 100000 nM
- TGI [21]: > 100000 nM
- TGI [22]: > 100000 nM
- TGI [23]: > 100000 nM
- TGI [25]: > 100000 nM
- TGI [26]: > 100000 nM
- TGI [28]: > 100000 nM
- TGI [29]: > 100000 nM
- TGI [30]: > 100000 nM
- TGI [31]: > 100000 nM
- TGI [32]: > 100000 nM
- TGI [33]: > 100000 nM
- TGI [50]: > 100000 nM
- TGI [34]: > 100000 nM
- TGI [35]: > 100000 nM
- TGI [36]: > 100000 nM
- TGI [51]: > 100000 nM
- TGI [37]: > 100000 nM
- TGI [38]: > 100000 nM
- TGI [52]: > 100000 nM
- TGI [39]: > 100000 nM
- TGI [40]: > 100000 nM
- TGI [41]: > 100000 nM
- TGI [43]: > 100000 nM
- TGI [53]: > 100000 nM
